# Test results reported in patent publication US20070167405A1, “Galectins -1 and -4 in tumor development” (priority 2001, published 2007).
# Values joined by “and” are separate entries in the source; they are usually repeats but may differ in a detail not shown here. Identical values can stand only once.
# Columns and labels:
# [1] = biological target: recombinant human galectin-1 (Homo sapiens, UniProt P09382); test: SPR (BIAcore) equilibrium binding to immobilized galectin-1; set-up: key to Galectin-1 binding, KD: NB: non-binder; settings: for binding to galectin-1 (in words): SPR assay; for Galectin-1 binding, KD / Kd: SPR steady state affinity fit, Table I; for Kd: read-out: Galectin-1 binding, KD
# Chain of recombinant human galectin-1 (P09382 whole entry): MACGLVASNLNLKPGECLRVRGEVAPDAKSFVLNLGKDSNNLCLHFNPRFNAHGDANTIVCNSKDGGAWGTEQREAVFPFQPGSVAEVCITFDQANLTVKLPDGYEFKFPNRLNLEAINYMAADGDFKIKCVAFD
# Protocol: (§1) Galectin binding affinity measurements were performed in a surface plasmon resonance (SPR) assay using […] instrument (BIAcore, Inc, Uppsala, Sweden). PBS with 5 mM β-mercaptoethanol was used as running buffer for all experiments. Purified recombinant human galectin-1 and galectin-4 were immobilized at different surface densities on CM5 carboxymethyldextran chip (BIAcore) in the presence of 150 mM lactose, using standard amine coupling chemistry. Galectin immobilization was performed at 5 μl/min flow rate. To ensure the maximum possible immobilization of recombinant proteins, carboxylmethyldextran surface was activated with a 15 min pulse of a mixture of 0.05 M N-hydroxysuccinimide (NHS) with 0.2 M N-ethyl-N′-(dimethylaminopropyl) carbodiimide (EDC). Recombinant galectins, diluted to 30 μg/ml in 10 mM Na Acetate buffer (pH 4.8 for galectin-1 and pH 5.5 for galectin-4) were coupled to the surface during a 15-minute injection. Following galectin injection, remaining activated groups on the surface of the chip were deactivated with a 7 min pulse of 1 M ethanolamine hydrochloride, pH 8.5. Blank, unmodified CM5 surface was used as a negative control for the corrections for refractive index changes due to the presence of lactulosamines.
# (§2) Binding of lactulosamines was performed at 80 μl/min flow rate, with injection times of 15 sec. […] Instead, the equilibrium binding levels were examined and determined the equilibrium binding constant using steady state affinity fitting model (BIAevaluation software version 3.1).
# [2] = biological target: T1, recombinant human galectin-4 (Homo sapiens, UniProt P56470); test: SPR (BIAcore) equilibrium binding to immobilized galectin-4; set-up: key to Galectin-4 binding, KD: NB: non-binder; settings: for binding to galectin-4 (in words): SPR assay; for Galectin-4 binding, KD / Kd: SPR steady state affinity fit, Table I; for Kd: read-out: Galectin-4 binding, KD
# T1 construct: cDNA encoding full-length human galectin-4 was amplified from an EST clone; made in house; host or cells: E. coli BL21 (DE3)pLysS
# T1 sequence (P56470 1-323): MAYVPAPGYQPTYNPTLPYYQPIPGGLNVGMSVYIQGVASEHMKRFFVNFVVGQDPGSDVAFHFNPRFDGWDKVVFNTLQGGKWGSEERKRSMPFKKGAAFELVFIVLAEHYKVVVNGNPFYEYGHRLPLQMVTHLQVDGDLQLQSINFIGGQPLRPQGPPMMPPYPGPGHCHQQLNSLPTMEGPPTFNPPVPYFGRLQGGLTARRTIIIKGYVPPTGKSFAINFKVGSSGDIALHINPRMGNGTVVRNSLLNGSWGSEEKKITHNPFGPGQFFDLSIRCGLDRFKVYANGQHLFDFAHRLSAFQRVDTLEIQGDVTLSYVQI
# Protocol: as §1, §2
# [3] = biological target: galectin-1 binding to 90K/MAC-2BP (Homo sapiens, UniProt P09382); test: ELISA, inhibition of galectin-1 binding to immobilized 90K; settings: for inhibition of binding of galectin-1 to 90K: at 156 μM, galectin-1 2.5 μg/ml (0.17 μM)
# Chain of galectin-1 binding to 90K/MAC-2BP (P09382 2-135 limits assumed): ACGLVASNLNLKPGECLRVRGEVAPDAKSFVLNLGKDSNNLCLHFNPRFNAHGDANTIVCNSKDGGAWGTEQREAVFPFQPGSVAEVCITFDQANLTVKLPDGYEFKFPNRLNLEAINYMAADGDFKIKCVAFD
# Protocol: (§3) Human 90K/MAC-2BP (thereafter called 90K) was purified from transfected EBNA-293 cells (lurisci, I., et al., Clin. Cancer Res. (2000) 6:1389-1393). Laminin was obtained from Boehringer Mannheim GmbH (Germany). The ELISA for galectin binding has been previously described (Tinari, N., et al., Int. J. Cancer (2001) 91:167-172). Briefly, Nunc Maxisorb microtiter wells were coated with 0.5 μg/well of 90K or laminin. Recombinant galectin-1 (2.5 μg/ml or 0.17 μM) was diluted in PBS with 0.1% Tween-20 and added to wells coated with glycoproteins, and galectin-1 binding was detected with anti-galectin-1 rabbit antiserum. In binding-inhibition experiments, recombinant galectin-1 was diluted in PBS-0.1% Tween-20 containing indicated concentration of lactulosamines or lactose.
# [4] = biological target: galectin-1 binding to laminin (Homo sapiens, UniProt P09382); test: ELISA, inhibition of galectin-1 binding to immobilized laminin; settings: for inhibition of binding of galectin-1 to laminin: at 156 μM, galectin-1 2.5 μg/ml (0.17 μM)
# Chain of galectin-1 binding to laminin (P09382 2-135 limits assumed): as above
# Protocol: as §3
# CD8+ CTL clone [5] = test: CD8+ CTL clone survival after TF peptide stimulation, with galectin-1 and inhibitors; format: cell-based
# Text: The ability of L2hmda to restore this activity is especially significant since TDG, a known galectin inhibitor, is toxic. However, L2hmda is not toxic. […] The CD8+ CTL clone was stimulated with TF peptide for 4 days and cell survival (% of starting number) measured by enumerating viability by trypan blue exclusion.
# CD8+ CTL clone [6] = test: Cytokine production by CD8+ CTL clone after TF peptide stimulation, with galectin-1 and inhibitor; format: cell-based; settings: supernatants 48 hr after stimulation; galectin-1 0-7 uM
# Protocol: Treatment in vitro of CD4+ and CD8+T cells with recombinant soluble galectin-1 inhibits their survival and ability to secrete cytokine, such as interferon-γ and IL-2. […] In FIG. 10A, cells are stimulated by TF peptide and the levels of interferon-γ produced measured in nanogram/milliliter (ng/ml). As shown, galectin-1 inhibits interferon-γ secretion in a dose-dependent manner. […] Similar data were seen when another cytokine, IL-2, was measured (not shown).
# [7] = Toxicity statement on galectin inhibitors
compound,measurement,setting,value
"OC[C@H]1O[C@H](O[C@H]2[C@H](O)[C@@H](O)[C@H](O)O[C@@H]2CO)[C@H](O)[C@@H](O)[C@@H]1O [Maltose, reference compound]",binding to galectin-1 (in words),[1],unable to bind
same,"Galectin-1 binding, KD",[1],NB
same,binding to galectin-4 (in words),[2],unable to bind
same,"Galectin-4 binding, KD",[2],NB
O=C(O)C(Cc1ccccc1)NCC(=O)C(O)C(OC1OC(CO)C(O)C(O)C1O)C(O)CO [Lactulose-L-phenylalanine],Kd,[1],200 µM
same,Kd,[2],1090 µM and 1260 µM
fructose-D-leucine,binding to galectin-1 (in words),[1],did not
same,binding to galectin-1 (in words),[1]; listed as fructose coupled to leucine,unable to bind
same,"Galectin-1 binding, KD",[1],NB
same,binding to galectin-4 (in words),[2],unable to bind
same,"Galectin-4 binding, KD",[2],NB
"OC[C@H]1O[C@@H](O[C@H]2[C@H](O)[C@@H](O)[C@H](O)O[C@@H]2CO)[C@H](O)[C@@H](O)[C@H]1O [β-lactose, reference compound]",binding to galectin-1 (in words),[1],able to bind
same,binding to galectin-4 (in words),[2],able to bind
same,inhibition of galectin-1 binding to 90K (in words),"[3]; ELISA, FIG. 9A",inhibited
same,inhibition of binding of galectin-1 to 90K,[3],about 20%
same,inhibition of galectin-1 binding to laminin (in words),"[4]; ELISA, FIG. 9B",inhibited
same,inhibition of binding of galectin-1 to laminin,[4],~10%
"OC[C@H]1O[C@@](CO)(O[C@H]2O[C@H](CO)[C@@H](O)[C@H](O)[C@H]2O)[C@@H](O)[C@@H]1O [Sucrose, reference compound]",binding to galectin-1 (in words),[1],unable to bind
same,"Galectin-1 binding, KD",[1],NB
same,binding to galectin-4 (in words),[2],unable to bind
same,"Galectin-4 binding, KD",[2],NB
O=C(O)C(Cc1c[nH]cn1)NCC(=O)C(O)C(OC1OC(CO)C(O)C(O)C1O)C(O)CO [Lactulose-L-histidine],Kd,[1],191 µM
same,Kd,[2],2280 µM
CC(NCC(=O)C(O)C(OC1OC(CO)C(O)C(O)C1O)C(O)CO)C(=O)O [Lactulose-L-alanine],Kd,[1],150 µM
same,Kd,[2],1490 µM and 1720 µM
CCC(C)C(NCC(=O)C(O)C(OC1OC(CO)C(O)C(O)C1O)C(O)CO)C(=O)O [Lactulose-L-isoleucine],Kd,[1],129 µM
same,Kd,[2],550 µM
O=C(O)CCCNCC(=O)C(O)C(OC1OC(CO)C(O)C(O)C1O)C(O)CO [Lactulose-L-GABA],Kd,[1],106 µM
same,Kd,[2],1040 µM
CC(O)C(NCC(=O)C(O)C(OC1OC(CO)C(O)C(O)C1O)C(O)CO)C(=O)O [Lactulose-L-threonine],Kd,[1],376 µM
same,Kd,[2],3830 µM
O=C(O)CNCC(=O)C(O)C(OC1OC(CO)C(O)C(O)C1O)C(O)CO (stereo not shown) [Lactulose-glycine],Kd,[1],102 µM
same,Kd,[2],790 µM
same,inhibition of binding of galectin-1 to 90K,[3],about 20%
same,inhibition of binding of galectin-1 to laminin,[4],~10%
"galectin-1: recombinant soluble galectin-1, immunosuppressive lectin added to T cells",death of T cells,"CD8+ CTL clone [5]; over the 4 day period, trypan blue exclusion",90%
same,IFN-γ production (ELISA),CD8+ CTL clone [6],suppressed in a dose dependent fashion
CSCCC(NCC(=O)C(O)C(OC1OC(CO)C(O)C(O)C1O)C(O)CO)C(=O)O [Lactulose-L-methionine],Kd,[1],127 µM
same,Kd,[2],1270 µM
O=C(CN1CCCC1C(=O)O)C(O)C(OC1OC(CO)C(O)C(O)C1O)C(O)CO [Lactulose-L-proline],Kd,[1],70 µM
same,Kd,[2],530 µM
same,inhibition of binding of galectin-1 to 90K,[3],about 50%
same,inhibition of binding of galectin-1 to laminin,[4],~40%
CC(C)C(NCC(=O)C(O)C(OC1OC(CO)C(O)C(O)C1O)C(O)CO)C(=O)O [Lactulose-L-valine],Kd,[1],158 µM
same,Kd,[2],719 µM and 730 µM
"OC[C@H]1O[C@@H](S[C@@H]2O[C@H](CO)[C@H](O)[C@H](O)[C@H]2O)[C@H](O)[C@@H](O)[C@H]1O [TDG, thiodigalactolate, reference compound]",prevention of cell death induced by galectin-1,"CD8+ CTL clone [5]; 4 days, trypan blue exclusion, FIG. 10B",prevented the majority of cell death
same,restoring the ability of CTL's to proliferate,"CD8+ CTL clone [5]; in presence of galectin-1, FIG. 10B",able to restore
same,toxicity,[7],toxic
CC(NCC(=O)C(O)C(OC1OC(CO)C(O)C(O)C1O)C(O)CO)C(=O)O [Lactulose-D-alanine],Kd,[1],133 µM
same,Kd,[2],1010 µM
CC(C)CC(NCC(=O)C(O)C(OC1OC(CO)C(O)C(O)C1O)C(O)CO)C(=O)O [Lactulose-D-leucine],Kd,[1],128 µM and 223 µM
same,Kd,[2],770 µM and 880 µM and 1090 µM
